Structures can show the parent of a compound that is named as a salt.
Target: T1, hNaV1.7 (Homo sapiens, UniProt Q15858)
T1 construct: expressed in transfected cells; host or cells: HEK293
Test: QPatch NaV1.7 assay
Format: cell-based
Conditions: HEK293-hNaV1.7 cells; holding potential −90 mV, most channels in closed state; read-out: QP Nav1.7 −90 mV pIC50 (converted)
Experimental: The compounds of the invention were tested in a QPatch NaV1.7 assay.
HEK293-hNaV1.7 cells were grown in DMEM-F12+10% FBS culture media at 37° C. At a confluency of 50-70% cells were dissociated from culture flasks & triturated to ensure unicellular cell suspension; cell density was measured & adjusted to 2-3×10^6 cells/ml. Recordings were obtained using QPatch16×. The external solution was (in mM): NaCl, 128; KCl, 5; MgCl2, 2; CaCl2, 2; Glucose, 30; HEPES, 15; pH 7.3, 305-315 mOsm. Following seal formation and whole-cell access using internal solution (containing in mM: CsF, 135; EGTA/CsOH, ⅕; HEPES 10; NaCl, 10; pH 7.3, 310-320 mOsM), voltage pulse protocols were applied. Initially a steady state inactivation voltage protocol was used to determine the half-maximal voltage for steady state inactivation (V1/2 SSI). Two holding voltages were used to determine test drug inhibition: −90 mV, where most of the channels are in a closed state; and V1/2 SSI, where half of the channels are inactivated. Currents were elicited every 10 seconds by stepping to a membrane potential of 0 mV for 20 ms. Four-point cumulative concentration responses were derived by determining the peak current amplitude at each concentration of test drug over 120 second application. Curves were fitted with the Hill equation yielding pIC50 values at −90 mV and V1/2 SSI holding potentials.

T1 sequence (Q15858 whole entry): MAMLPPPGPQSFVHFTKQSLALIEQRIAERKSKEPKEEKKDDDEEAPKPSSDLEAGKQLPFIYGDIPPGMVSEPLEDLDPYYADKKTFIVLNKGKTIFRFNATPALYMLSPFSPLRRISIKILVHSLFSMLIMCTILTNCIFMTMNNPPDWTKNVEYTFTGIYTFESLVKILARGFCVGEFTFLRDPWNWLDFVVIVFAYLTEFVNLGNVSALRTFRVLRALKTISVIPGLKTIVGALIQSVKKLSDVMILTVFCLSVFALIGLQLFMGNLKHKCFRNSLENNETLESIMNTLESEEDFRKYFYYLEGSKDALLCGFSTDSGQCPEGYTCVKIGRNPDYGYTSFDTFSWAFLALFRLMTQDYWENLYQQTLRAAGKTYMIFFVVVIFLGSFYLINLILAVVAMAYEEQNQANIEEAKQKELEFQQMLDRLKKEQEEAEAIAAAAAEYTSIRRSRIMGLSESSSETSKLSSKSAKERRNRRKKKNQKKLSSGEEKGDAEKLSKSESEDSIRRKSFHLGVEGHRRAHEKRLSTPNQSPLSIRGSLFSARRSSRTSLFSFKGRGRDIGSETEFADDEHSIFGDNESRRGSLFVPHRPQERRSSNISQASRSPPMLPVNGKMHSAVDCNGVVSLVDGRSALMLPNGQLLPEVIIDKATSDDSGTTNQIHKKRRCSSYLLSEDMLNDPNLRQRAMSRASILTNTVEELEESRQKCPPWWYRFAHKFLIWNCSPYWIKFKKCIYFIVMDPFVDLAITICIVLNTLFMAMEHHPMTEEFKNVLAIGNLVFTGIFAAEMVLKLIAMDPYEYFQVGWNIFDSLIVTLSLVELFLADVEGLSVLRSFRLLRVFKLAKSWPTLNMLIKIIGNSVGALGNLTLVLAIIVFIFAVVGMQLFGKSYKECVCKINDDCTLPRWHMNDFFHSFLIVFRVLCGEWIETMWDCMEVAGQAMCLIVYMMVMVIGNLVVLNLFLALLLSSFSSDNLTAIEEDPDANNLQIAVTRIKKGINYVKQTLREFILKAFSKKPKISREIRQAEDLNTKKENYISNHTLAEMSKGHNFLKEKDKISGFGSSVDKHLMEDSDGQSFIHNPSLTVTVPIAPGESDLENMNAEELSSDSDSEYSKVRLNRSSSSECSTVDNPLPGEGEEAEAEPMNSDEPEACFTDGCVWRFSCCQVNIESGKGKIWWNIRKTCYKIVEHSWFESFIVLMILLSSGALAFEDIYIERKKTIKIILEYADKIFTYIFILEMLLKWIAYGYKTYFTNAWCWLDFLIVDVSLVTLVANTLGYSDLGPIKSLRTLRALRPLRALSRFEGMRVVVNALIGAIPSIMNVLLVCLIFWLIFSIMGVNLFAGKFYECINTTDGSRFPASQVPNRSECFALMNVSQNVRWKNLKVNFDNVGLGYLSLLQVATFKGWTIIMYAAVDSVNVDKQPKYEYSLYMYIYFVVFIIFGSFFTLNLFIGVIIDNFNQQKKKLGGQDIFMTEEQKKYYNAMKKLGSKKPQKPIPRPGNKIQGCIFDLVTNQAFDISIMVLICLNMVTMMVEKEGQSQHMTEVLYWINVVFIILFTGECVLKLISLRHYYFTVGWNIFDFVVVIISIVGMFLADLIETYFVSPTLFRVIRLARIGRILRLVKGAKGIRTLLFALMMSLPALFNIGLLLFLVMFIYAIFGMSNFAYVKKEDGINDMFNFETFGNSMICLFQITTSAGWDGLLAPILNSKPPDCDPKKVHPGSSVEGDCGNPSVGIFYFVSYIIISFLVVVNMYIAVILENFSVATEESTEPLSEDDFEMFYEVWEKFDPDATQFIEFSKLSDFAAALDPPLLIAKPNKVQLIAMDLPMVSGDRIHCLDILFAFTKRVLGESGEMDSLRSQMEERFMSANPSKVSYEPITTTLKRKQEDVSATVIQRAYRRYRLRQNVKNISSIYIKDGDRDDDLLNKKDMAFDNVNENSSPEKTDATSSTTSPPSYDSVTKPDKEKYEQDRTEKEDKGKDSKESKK

IC50: 50.1 µM
Compound: CN1CC[C@@]2(CC[C@H](c3cc(-c4cccc(OC(F)(F)F)c4)ccn3)N2)C1=O [Example 1, (2R,5S)-7-Methyl-2-[4-[3-(trifluoromethoxy)phenyl]-2-pyridyl]-1,7-diazaspiro[4.4]nonan-6-one hydrochloride]

Reference: patent US9303032B2, “2-(pyridin-2YL)-1, 7-diaza-spiro [4.4] nonane-6-one compound as voltage-gated sodium channels modulator” (CONVERGENCE PHARMACEUTICALS LIMITED, priority 2011, dated 2016)
